# Patent publication US20240270748A1 (Merck Patent GmbH, priority 2021, published 2024)
# System: YAP-TEAD interaction
# Assay: SK-HEP-1 reporter assay (8xTEAD responsive elements driving NanoLuc luciferase)
# Format: cell-based
# Conditions: Homo sapiens, SK-HEP1, SK-HEP-1 reporter assay; class symbols
# Outline: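 Reporter read-out: NanoLuc luminescence from 8×TEAD elements stably integrated in SK-HEP-1 cells, after 24 h compound exposure at 37° C. Ten concentrations tested in duplicate, top 30 μM final, 0.3% DMSO; IC50 from curve.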
row,SMILES,IC50 [µM]
1,"CCCn1cc2c3cc(C(=O)N[C@@H](CO)c4ccccn4)ccc3n(-c3ccc(C(F)(F)F)cc3)c2n1 [Example C255, N-[(1R)-2-hydroxy-1-(pyridin-2-yl)ethyl]-2-propyl-8-[4-(trifluoromethyl)phenyl]-2H,8H-pyrazolo[3,4-b]indole-5-carboxamide]",> 10
2,"CCn1cc2c3cc(C(=O)N[C@@H](CO)c4ccccn4)ccc3n(-c3ccc(C(F)(F)F)cc3)c2n1 [Example C256, 2-ethyl-N-[(1R)-2-hydroxy-1-(pyridin-2-yl)ethyl]-8-[4-(trifluoromethyl)phenyl]-2H,8H-pyrazolo[3,4-b]indole-5-carboxamide]",0.001 to 0.01
3,"Cn1cnc2c1c1cc(C3CC(n4nccn4)=NO3)ccc1n2-c1ccc(C(F)(F)F)cc1 (centres unmarked) [Example C212, 2-(5-{1-methyl-4-[4-(trifluoromethyl)phenyl]-1H,4H-imidazo[4,5-b]indol-7-yl}-4,5-dihydro-1,2-oxazol-3-yl)-2H-1,2,3-triazole]",0.1 to 10
4,"Cc1snc2c1c1cc(C(=O)NCc3nccn3C)ccc1n2-c1ccc(C(F)(F)F)cc1 [Example C79, 3-methyl-N-[(1-methyl-1H-imidazol-2-yl)methyl]-8-[4-(trifluoromethyl)phenyl]-8H-[1,2]thiazolo[3,4-b]indole-5-carboxamide]",0.1 to 10
5,"Cn1cc2c(n1)c1cc(S(=O)(=O)N3CCC[C@H]3c3cncnc3)ccc1n2-c1ccc(C(F)(F)F)cc1 (single isomer, unassigned) [Example C68]",0.1 to 10
6,"CC(NC(=O)c1ccc2c(c1)c1cn(C)nc1n2-c1ccc(C(F)(F)F)cc1)c1cccc(N)n1 (single isomer, unassigned) [Example C186]",0.1 to 10
7,"C[C@@H](NC(=O)c1ccc2c(n1)c1cn(C)nc1n2-c1ccc(C(F)(F)F)cc1)c1ccccn1 [Example C114, 4-methyl-N-[(1R)-1-(pyridin-2-yl)ethyl]-7-[4-(trifluoromethyl)phenyl]-4,5,7,12-tetraazatricyclo[6.4.0.0^2,6]dodeca-1(8),2,5,9,11-pentaene-11-carboxamide]",0.1 to 10
8,"C[C@H](CCN)NC(=O)c1ccc2c(c1)c1cn(C)nc1n2-c1ccc(C(F)(F)F)cc1 [Example C27, N-[(2R)-4-aminobutan-2-yl]-2-methyl-8-[4-(trifluoromethyl)phenyl]-2H,8H-pyrazolo[3,4-b]indole-5-carboxamide]",0.1 to 10
9,"Cc1snc2c1c1cc(C(=O)NC3(CO)CCC3)ccc1n2-c1ccc(C(F)(F)F)cc1 [Example C82, N-[1-(hydroxymethyl)cyclobutyl]-3-methyl-8-[4-(trifluoromethyl)phenyl]-8H-[1,2]thiazolo[3,4-b]indole-5-carboxamide]",0.1 to 10

# Same assay, conditions: Homo sapiens, SK-HEP1, SK-HEP-1 reporter assay; n.d. = value not detectable below threshold given in parentheses; ND = not determinable within the entire range
row,SMILES,IC50 [µM]
1,"Cn1cc2c(n1)c1cc(S(=O)(=O)N3C[C@@H](O)C[C@@H]3c3ccccc3)ccc1n2-c1ccc(C(F)(F)F)cc1 (single isomer, unassigned) [Example C45]",> 1
2,"C[C@H](CO)NS(=O)(=O)c1ccc2c(c1)c1nnn(C)c1n2-c1ccc(C(F)(F)F)cc1 [Example C13, N-[(2R)-1-hydroxypropan-2-yl]-3-methyl-4-[4-(trifluoromethyl)phenyl]-3H,4H-[1,2,3]triazolo[4,5-b]indole-7-sulfonamide]",> 30
3,"Cn1cc2c3cc(NC(=O)Cc4ccncc4)ccc3n(-c3ccc(C(F)(F)F)cc3)c2n1 [Example C33, N-{2-methyl-8-[4-(trifluoromethyl)phenyl]-2H,8H-pyrazolo[3,4-b]indol-5-yl}-2-(pyridin-4-yl)acetamide]",> 10
4,"Cn1nnc2c3cc(S(=O)(=O)O)ccc3n(-c3ccc(C(F)(F)F)cc3)c21 [Example C44, 3-methyl-4-[4-(trifluoromethyl)phenyl]-3H,4H-[1,2,3]triazolo[4,5-b]indole-7-sulfonic acid]",> 30

# Same assay, conditions: SK-HEP-1 reporter assay; class symbols
row,SMILES,IC50 [µM]
1,"Cc1snc2c1c1cc(C(=O)N=S(C)(=O)CCCO)ccc1n2-c1ccc(C(F)(F)F)cc1 (single isomer, unassigned) [Example C103]",0.1 to 10
